# Source: patent US12227491B2, “EGFR inhibitors” (INVENTISBIO CO., LTD., priority 2018, dated 2025)
# Like-named read-outs stand apart in the source and are kept apart here.
# Experiments:
# [1] = biological target: wild-type EGFR (WT-EGFR) (Homo sapiens, UniProt P00533); conditions: major metabolite of AZD9291; cited from earlier work
# [2] = Hygroscopicity of crystalline Form I on storage at 25° C., 80% relative humidity; assay type: physicochemical
# [3] = Solid-state stability of Form I under thermal treatment and mechanical grinding (XRPD); assay type: physicochemical
# Description: POWDER X-RAY DIFFRACTION (XRPD): The solid samples from screening were examined using X-ray diffractometer (Bruker D8 advance). The system is equipped with LynxEye detector. The samples were scanned from 3 to 40° 2θ, at a step size 0.02° 2θ. The tube voltage and current were 40 KV and 40 mA, respectively. The sample was transferred from sample container onto zero background XRD-holder and gently ground.
# DSC ANALYSIS: DSC analysis was conducted on a TA Instruments Q200. The calibration standard was indium. A sample in weight was placed into a TA DSC pan, and weight accurately recorded. Crimped pans were used for analysis and the samples were heated under nitrogen (50 mi/min) at a rate of 10° C./min, up to a final temperature.
# [4] = system: NSCLC patients; conditions: cited from earlier work
# Sequence of wild-type EGFR (WT-EGFR) (P00533 25-1210): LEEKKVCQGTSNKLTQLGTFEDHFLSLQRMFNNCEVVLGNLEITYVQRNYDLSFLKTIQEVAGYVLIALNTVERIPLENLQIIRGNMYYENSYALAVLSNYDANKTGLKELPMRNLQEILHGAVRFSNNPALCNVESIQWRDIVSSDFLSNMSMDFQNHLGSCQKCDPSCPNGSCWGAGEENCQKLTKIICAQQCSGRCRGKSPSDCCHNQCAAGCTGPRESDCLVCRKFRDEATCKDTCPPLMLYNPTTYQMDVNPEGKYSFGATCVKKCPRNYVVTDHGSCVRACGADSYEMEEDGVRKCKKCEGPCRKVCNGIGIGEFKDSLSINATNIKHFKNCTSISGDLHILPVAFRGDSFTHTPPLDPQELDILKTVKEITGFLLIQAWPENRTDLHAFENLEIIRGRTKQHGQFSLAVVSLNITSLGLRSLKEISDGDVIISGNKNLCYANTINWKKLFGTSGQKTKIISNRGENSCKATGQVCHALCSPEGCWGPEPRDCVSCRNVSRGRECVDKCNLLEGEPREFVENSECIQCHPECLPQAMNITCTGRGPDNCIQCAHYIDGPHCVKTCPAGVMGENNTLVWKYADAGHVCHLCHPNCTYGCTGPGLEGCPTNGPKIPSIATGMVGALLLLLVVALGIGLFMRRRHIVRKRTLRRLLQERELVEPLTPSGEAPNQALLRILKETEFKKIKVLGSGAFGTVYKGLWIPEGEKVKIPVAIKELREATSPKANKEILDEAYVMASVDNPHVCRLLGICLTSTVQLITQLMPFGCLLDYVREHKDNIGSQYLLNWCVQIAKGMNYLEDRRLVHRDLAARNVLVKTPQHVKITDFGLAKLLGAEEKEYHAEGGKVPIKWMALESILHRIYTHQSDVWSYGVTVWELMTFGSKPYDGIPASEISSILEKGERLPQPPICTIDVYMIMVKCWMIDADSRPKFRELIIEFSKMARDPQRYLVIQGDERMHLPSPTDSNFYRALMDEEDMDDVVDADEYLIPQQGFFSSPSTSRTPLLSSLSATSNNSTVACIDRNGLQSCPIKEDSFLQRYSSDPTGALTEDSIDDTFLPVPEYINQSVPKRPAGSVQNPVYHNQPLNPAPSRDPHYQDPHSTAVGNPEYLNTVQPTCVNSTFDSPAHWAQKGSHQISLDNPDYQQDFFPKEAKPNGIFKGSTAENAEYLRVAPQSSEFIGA
structure (smiles),measurement,setting,value
C=CC(=O)Nc1cc(Nc2nccc(-c3c[nH]c4ccccc34)n2)c(OC)cc1N(C)CCN(C)C [AZ5104],inhibitory effect on wild-type EGFR,[1],strong inhibitory effect
"C=CC(=O)Nc1cc(Nc2nccc(-c3cn(CC(F)(F)F)c4ccccc34)n2)c(OC)cc1N(C)CCN(C)C [Compound 5, N-(2-((2-(dimethylamino)ethyl)(methyl)amino)-4-methoxy-5-((4-(1-(2,2,2-trifluoroethyl)-1H-indol-3-yl)pyrimidin-2-yl)amino)phenyl)acrylamide monomesylate]",increase in weight upon storing,"[2]; 25° C., relative humidity of 80%",only negligible increase in weight
same,hygroscopicity,[2]; crystalline Form I,non-hygroscopic
same,crystallinity after mechanical grinding,[3]; Form I grinded mechanically,some loss of crystallinity
same,solid form after thermal treatment,"[3]; crystals heated in DSC cells to 220° C., then immediately placed into ice (quench), XRPD",converted into an amorphous form
C#Cc1cccc(Nc2ncnc3cc(OCCOC)c(OCCOC)cc23)c1 [erlotinib],share of patients in whom the drug has effect,[4]; Asian NSCLC patients,about 35%
same,share of patients in whom the drug has effect,[4]; Caucasian patients with NSCLC,about 10%
COc1cc2ncnc(Nc3ccc(F)c(Cl)c3)c2cc1OCCCN1CCOCC1 [gefitinib],share of patients in whom the drug has effect,[4]; Asian NSCLC patients,about 35%
same,share of patients in whom the drug has effect,[4]; Caucasian patients with NSCLC,about 10%
